This is an account of results in paper PMC10486429, “Investigations Using Albumin Binders to Modify the Tissue Distribution Profile of Radiopharmaceuticals Exemplified with Folate Radioconjugates” (Cancers, 2023).

For series [1], the target named is human serum albumin (HSA) in human plasma (Homo sapiens, UniProt P02768). As to the kind of experiment: Ultrafiltration albumin-binding assay of 177Lu-RedFols, human plasma. The following applies: for Relative albumin-binding affinity: human blood plasma, inverse B50 ratio, normalized to the respective (6R or 6S) RedFol-1, set as 1.0; for Albumin-bound fraction: undiluted human blood plasma. As to the method: An ultrafiltration method was applied according to a previously published procedure (Supplementary Materials Section S11) that was different from the one reported for the ^177Lu-DOTA-ALBs to prevent non-specific binding to the filter units. Briefly, the albumin-bound fraction was determined at different molar concentration ratios of serum albumin relative to the ^177Lu-labeled RedFols using a blood plasma/PBS dilution series and constant amounts of the respective ^177Lu-labeled folate conjugate (0.3 MBq; 0.006 nmol). The albumin-bound fraction was separated from the free (albumin-unbound) fraction of each sample using Amicon centrifugal filters (cut-off of 10 kDa; Merck Millipore, Carrigtwohill, Ireland). The inserts of the filter devices were inverted and centrifuged to recover the albumin-bound fraction, whereas filter-bound activity was considered as free (albumin-unbound) folate radioconjugate. The activity of the different fractions was measured using a γ-counter (Perkin Elmer, Wallac Wizard 1480, Waltham, MA, USA), and the proportion of albumin-bound radioconjugate was set in relation to the total activity measured. The data were analyzed in analogy to those of ^177Lu-DOTA-ALBs (Section 2.1.3). The relative albumin-binding affinity was assessed by calculating the inverse ratio of the B50 value of each 6R-5-MTHF-based folate radioconjugate to the B50 value of [^177Lu]Lu-6R-RedFol-1 (set as 1.0) and of each 6S-5-MTHF-based folate radioconjugate to the B50 value of [^177Lu]Lu-6S-RedFol-1 (set as 1.0). The results were presented as average ± SD of n = 3 independent experiments. […]
S11. Relative Albumin-Binding Properties of 177Lu-RedFols
Purpose: The affinity of the folate radioconjugates to serum albumin in mouse and human blood plasma was determined and compared.
Methods: The albumin-binding affinity of the 177Lu-RedFols was assessed using mouse plasma (Rockland Immunochemicals, Inc., Pottstown, PA, USA, Lot N: 32321; MSA: ⁓550 µM) and human plasma (Stiftung Blutspende SRK Aargau-Solothurn, Aarau, Switzerland; HSA: ⁓800 µM), respectively. An ultrafiltration method was applied accord-ing to a previously published procedure that was different from the one reported for the 177Lu-DOTA-ALBs to avoid non-specific binding to the filter units.
The folate radioconjugates (50 MBq/nmol, ~300 kBq, 6 pmol in 15 µL) were added to samples of mouse and human blood plasma (150 µL), followed by incubation of the sam-ples at 37 °C for 30 min. The samples were loaded on Amicon centrifugal filters (cut-off of 10 kDa; Merck Millipore, Carrigtwohill, Ireland) followed by centrifugation (14000 rcf, 30 min, 4 °C) to allow the separation of the serum albumin-bound from the free (albumin-unbound) fractions of each sample. The inserts of the filter devices were inverted and centrifuged at 200 rcf for 3 min to recover the albumin-bound fraction. The activity of the albumin-bound fraction as well as the activity in the filtrate and in the filter unit were measured separately in a γ-counter (Perkin Elmer, Wallac Wizard 1480, Waltham, MA, USA). The percentage of radioconjugate bound to mouse and human albumin, respec-

Series [2] relates to KB tumor-bearing athymic nude mice. As to the kind of experiment: Biodistribution of 177Lu-RedFols in KB tumor-bearing mice. The format is in vivo, mouse. Here is the method:
Athymic nude mice (Crl:CD1-Foxn^nu) were kept on a folate-deficient rodent diet (ssniff Spezialdiäten GmbH, Soest, Germany) for at least one week prior to inoculation with the tumor cells. Biodistribution studies were performed approx. two weeks after subcutaneous inoculation with KB tumor cells (5 × 10^6 in 100 μL PBS) (Supplementary Materials Section S12). […] Data were presented as the average ± SD of n = 3−4 mice.
Purpose: Biodistribution studies were performed in KB tumor-bearing athymic nude mice (Crl:CD1-Foxnnu) in order to investigate the tissue distribution profiles of the novel radioconjugates. The aim was to compare the impact of the two different albumin binders (4-(p-iodophenyl)butanoate unit vs. 5-(p-iodophenyl)pentanoate unit), and that of the in-corporation of an AMBA linker adjacent to the albumin binder on the distribution profile of the resulting folate radioconjugates.
Methods: The methods are described in the main article. The mice were sacrificed at […]

The structures appear in SMILES notation.

human serum albumin (HSA) in human plasma, sequence (P02768 25-609): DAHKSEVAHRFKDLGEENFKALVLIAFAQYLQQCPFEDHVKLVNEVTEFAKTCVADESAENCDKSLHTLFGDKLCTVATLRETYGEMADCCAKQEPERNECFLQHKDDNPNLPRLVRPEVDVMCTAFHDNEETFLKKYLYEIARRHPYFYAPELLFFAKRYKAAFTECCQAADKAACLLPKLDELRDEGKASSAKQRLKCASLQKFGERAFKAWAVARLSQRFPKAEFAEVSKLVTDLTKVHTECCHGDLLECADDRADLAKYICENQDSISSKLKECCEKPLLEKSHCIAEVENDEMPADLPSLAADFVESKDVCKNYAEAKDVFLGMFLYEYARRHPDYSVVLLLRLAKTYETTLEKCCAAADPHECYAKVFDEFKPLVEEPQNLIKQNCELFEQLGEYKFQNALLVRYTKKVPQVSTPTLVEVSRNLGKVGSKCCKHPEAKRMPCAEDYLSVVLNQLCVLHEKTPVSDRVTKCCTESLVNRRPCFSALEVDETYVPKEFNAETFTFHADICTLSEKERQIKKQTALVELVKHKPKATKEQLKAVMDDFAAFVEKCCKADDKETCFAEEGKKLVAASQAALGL

For `CN1c2c(nc(N)[nH]c2=O)NC[C@H]1CNc1ccc(C(=O)N[C@@H](CCC(=O)N[C@@H](CCCCNC(=O)CN2CCN(CC(=O)O)CCN(CC(=O)O)CCN(CC(=O)O)CC2)C(=O)N[C@@H](CCCCNC(=O)c2ccc(CNC(=O)CCCCc3ccc(I)cc3)cc2)C(=O)O)C(=O)O)cc1` [[^177Lu]Lu-6R-RedFol-25, metal not drawn], in series [1], the Relative albumin-binding affinity amounted to 0.5 and the Albumin-bound fraction was 96%. In series [2] (1 h p.i.), the “Blood, accumulated activity” value came out at 13 ± 3 % IA/g; the “Bone, accumulated activity” value is reported as 1.5 ± 0.3 % IA/g; the “Intestines, accumulated activity” value is 1.7 ± 0.3 % IA/g; the “KB tumor, accumulated activity” value stood at 15 ± 1 % IA/g. Also, in series [2] (1 h p.i.), the “Kidneys, accumulated activity” value came to 22 ± 3 % IA/g; the “Liver, accumulated activity” value is 2.3 ± 0.6 % IA/g; the “Lung, accumulated activity” value stood at 5.8 ± 1.7 % IA/g; the “Muscle, accumulated activity” value is 1.4 ± 0.1 % IA/g. Further, in series [2] (1 h p.i.), the “Salivary glands, accumulated activity” value worked out at 4.7 ± 3.3 % IA/g; the “Spleen, accumulated activity” value is recorded as 1.7 ± 0.3 % IA/g; the “Stomach, accumulated activity” value is reported as 1.7 ± 0.2 % IA/g; the Tumor-to-blood ratio is given as 1.2 ± 0.4. Besides, in series [2] (1 h p.i.), the Tumor-to-kidney ratio is on record as 0.67 ± 0.07 and the Tumor-to-liver ratio worked out at 6.8 ± 2.4. Besides, in series [2] (4 h p.i.), the “Blood, accumulated activity” value turned out to be 6.1 ± 0.5 % IA/g; the “Bone, accumulated activity” value was 1.1 ± 0.1 % IA/g; the “Intestines, accumulated activity” value is recorded as 0.78 ± 0.15 % IA/g; the “KB tumor, accumulated activity” value is 30 ± 3 % IA/g. In addition, in series [2] (4 h p.i.), the “Kidneys, accumulated activity” value was determined as 39 ± 2 % IA/g; the “Liver, accumulated activity” value was found to be 2.1 ± 0.2 % IA/g; the “Lung, accumulated activity” value is given as 3.4 ± 0.1 % IA/g; the “Muscle, accumulated activity” value was 1.3 ± 0.2 % IA/g. In addition, in series [2] (4 h p.i.), the “Salivary glands, accumulated activity” value came out at 4.8 ± 3.2 % IA/g; the “Spleen, accumulated activity” value is on record as 1.2 ± 0.1 % IA/g; the “Stomach, accumulated activity” value is on record as 1.1 ± 0.1 % IA/g; the Tumor-to-blood ratio is on record as 4.9 ± 0.2. In series [2] (4 h p.i.), the Tumor-to-kidney ratio is recorded as 0.78 ± 0.11 and the Tumor-to-liver ratio amounted to 14 ± 1. For the same compound, in series [2] (24 h p.i.), the “Blood, accumulated activity” value was 0.16 ± 0.08 % IA/g; the “Bone, accumulated activity” value is reported as 0.50 ± 0.12 % IA/g; the “Intestines, accumulated activity” value was found to be 0.26 ± 0.06 % IA/g; the “KB tumor, accumulated activity” value is recorded as 34 ± 5 % IA/g. In series [2] (24 h p.i.), the “Kidneys, accumulated activity” value is given as 48 ± 4 % IA/g; the “Liver, accumulated activity” value is reported as 1.5 ± 0.2 % IA/g; the “Lung, accumulated activity” value is recorded as 0.78 ± 0.23 % IA/g; the “Muscle, accumulated activity” value is recorded as 1.1 ± 0.6 % IA/g. In series [2] (24 h p.i.), the “Salivary glands, accumulated activity” value amounted to 3.1 ± 2.0 % IA/g; the “Spleen, accumulated activity” value came to 0.60 ± 0.04 % IA/g; the “Stomach, accumulated activity” value was determined as 0.44 ± 0.06 % IA/g; the Tumor-to-blood ratio is listed as 247 ± 101. Also, in series [2] (24 h p.i.), the Tumor-to-kidney ratio is 0.72 ± 0.15 and the Tumor-to-liver ratio stood at 23 ± 7.

In the case of `CN1c2c(nc(N)[nH]c2=O)NC[C@H]1CNc1ccc(C(=O)N[C@@H](CCC(=O)N[C@@H](CCCCNC(=O)CN2CCN(CC(=O)O)CCN(CC(=O)O)CCN(CC(=O)O)CC2)C(=O)N[C@@H](CCCCNC(=O)c2ccc(CNC(=O)CCCc3ccc(I)cc3)cc2)C(=O)O)C(=O)O)cc1` [[^177Lu]Lu-6R-RedFol-3, metal not drawn], in series [1], the Relative albumin-binding affinity worked out at 1.1 and the Albumin-bound fraction is reported as 97%. Besides, the “Tumor-to-kidney ratio, comparison among all folate radioconjugates” value in series [2] was “highest tumor-to-kidney ratio”. For the same compound, in series [2] (1 h p.i.), the “Blood, accumulated activity” value is reported as 26 ± 3 % IA/g; the “Bone, accumulated activity” value worked out at 1.8 ± 0.5 % IA/g; the “Intestines, accumulated activity” value came out at 2.6 ± 0.8 % IA/g; the “KB tumor, accumulated activity” value was 8.5 ± 1.9 % IA/g. In series [2] (1 h p.i.), the “Kidneys, accumulated activity” value is reported as 8.0 ± 1.3 % IA/g; the “Liver, accumulated activity” value stood at 3.7 ± 0.4 % IA/g; the “Lung, accumulated activity” value stood at 11 ± 1 % IA/g; the “Muscle, accumulated activity” value was determined as 1.0 ± 0.1 % IA/g. Besides, in series [2] (1 h p.i.), the “Salivary glands, accumulated activity” value is on record as 5.2 ± 1.5 % IA/g; the “Spleen, accumulated activity” value is 2.9 ± 0.4 % IA/g; the “Stomach, accumulated activity” value is 1.9 ± 0.5 % IA/g; the Tumor-to-blood ratio is recorded as 0.33 ± 0.03. In series [2] (1 h p.i.), the Tumor-to-kidney ratio is given as 1.1 ± 0.1 and the Tumor-to-liver ratio was 2.3 ± 0.4. For the same compound, in series [2] (4 h p.i.), the “Blood, accumulated activity” value worked out at 17 ± 1 % IA/g; the “Bone, accumulated activity” value stood at 1.8 ± 0.1 % IA/g; the “Intestines, accumulated activity” value was 2.0 ± 0.2 % IA/g; the “KB tumor, accumulated activity” value was found to be 18 ± 2 % IA/g. In series [2] (4 h p.i.), the “Kidneys, accumulated activity” value turned out to be 7.6 ± 0.4 % IA/g; the “Liver, accumulated activity” value is listed as 3.0 ± 0.1 % IA/g; the “Lung, accumulated activity” value is reported as 8.2 ± 0.6 % IA/g; the “Muscle, accumulated activity” value amounted to 1.3 ± 0.1 % IA/g. For the same compound, in series [2] (4 h p.i.), the “Salivary glands, accumulated activity” value amounted to 4.2 ± 0.1 % IA/g; the “Spleen, accumulated activity” value amounted to 2.2 ± 0.2 % IA/g; the “Stomach, accumulated activity” value was 1.5 ± 0.1 % IA/g; the Tumor-to-blood ratio turned out to be 1.1 ± 0.1. Besides, in series [2] (4 h p.i.), the Tumor-to-kidney ratio is 2.4 ± 0.2 and the Tumor-to-liver ratio is on record as 6.0 ± 0.8. Also, in series [2] (24 h p.i.), the “Blood, accumulated activity” value stood at 7.9 ± 0.7 % IA/g; the “Bone, accumulated activity” value is listed as 1.1 ± 0.1 % IA/g; the “Intestines, accumulated activity” value amounted to 0.96 ± 0.15 % IA/g; the “KB tumor, accumulated activity” value is on record as 39 ± 4 % IA/g. For the same compound, in series [2] (24 h p.i.), the “Kidneys, accumulated activity” value is 12 ± 2 % IA/g; the “Liver, accumulated activity” value is given as 1.9 ± 0.3 % IA/g; the “Lung, accumulated activity” value is 4.1 ± 0.1 % IA/g; the “Muscle, accumulated activity” value stood at 1.0 ± 0.1 % IA/g. Besides, in series [2] (24 h p.i.), the “Salivary glands, accumulated activity” value turned out to be 4.0 ± 1.1 % IA/g; the “Spleen, accumulated activity” value is given as 2.2 ± 0.1 % IA/g; the “Stomach, accumulated activity” value is given as 1.1 ± 0.1 % IA/g; the Tumor-to-blood ratio is on record as 5.0 ± 0.4. Moreover, in series [2] (24 h p.i.), the Tumor-to-kidney ratio is on record as 3.3 ± 0.4 and the Tumor-to-liver ratio is given as 21 ± 1.

For the compound `CN1c2c(nc(N)[nH]c2=O)NC[C@H]1CNc1ccc(C(=O)N[C@@H](CCC(=O)N[C@@H](CCCCNC(=O)CN2CCN(CC(=O)O)CCN(CC(=O)O)CCN(CC(=O)O)CC2)C(=O)N[C@@H](CCCCNC(=O)CCCc2ccc(I)cc2)C(=O)O)C(=O)O)cc1` [[^177Lu]Lu-6R-RedFol-1, metal not drawn], in series [1], the Relative albumin-binding affinity is listed as 1.0 and the Albumin-bound fraction stood at 98%.

Regarding `CN1c2c(nc(N)[nH]c2=O)NCC1CNc1ccc(C(=O)NC(CCC(=O)NC(CCCCNC(=O)CN2CCN(CC(=O)[O-])CCN(CC(=O)[O-])CCN(CC(=O)[O-])CC2)C(=O)NC(CCCCNC(=O)CCCc2ccc(I)cc2)C(=O)O)C(=O)O)cc1.[177Lu+3]` (stereo not drawn) [[^177Lu]Lu-6S-RedFol-1], in series [1], the Relative albumin-binding affinity amounted to 1.0 and the Albumin-bound fraction is 98%.
